In brackets after ≈: the same amount, converted by molar mass. Where two headings read alike, the source gives them in different places.
Assays:
USA100 HA-MRSA = assay: MIC against clinical isolates of MRSA; type: cell-based; conditions: Staphylococcus aureus
VISA Mu50 = assay: MIC against clinical isolates of MRSA; type: cell-based; conditions: Staphylococcus aureus, read-out: MIC VISA Mu50
MCF-10 cells = assay: Mammalian cell toxicity (Alamar Blue); type: cell-based; conditions: Homo sapiens, MCF10; cytotoxicity, 4 h incubation; read-out: IC50 MCF-10
Experimental: Adherent cell lines were maintained in Eagle's Minimal Essential Media (Sigma-Aldrich, St. Louis, MO, USA) with 2 mM glutamine and Earle's Balanced Salt Solution (HyClone, Logan, UT, USA) adjusted to contain 1.5 g/L sodium bicarbonate, 0.1 mM non-essential amino acids, 1 mM sodium pyruvate and 10% fetal calf serum. Fetal calf serum used in these assays was lot matched throughout. […] Toxicity assays were conducted between passages 10–20. Target compound toxicity was measured by incubating the test compound with the cells for 4 h, washing the cells and finally treating the cells with Alamar Blue. After 12–24 h, the fluorescence of the reduced dye was measured. Fluorescence intensity as a function of test compound concentration was fit to the Fermi equation, using non-linear least squares regression analysis, to estimate IC50 values.

HepG2 cells = assay: Mammalian cell toxicity (Alamar Blue); type: cell-based; conditions: Homo sapiens, cytotoxicity, 4 h incubation
Experimental: Fetal calf serum used in these assays was lot matched throughout. All cultures were maintained under a humidified 5% CO2 atmosphere at 37°C, had media refreshed twice weekly and were subcultured by trypsinization and resuspension at a ratio of 1∶5 each week. Toxicity assays were conducted between passages 10–20. Target compound toxicity was measured by incubating the test compound with the cells for 4 h, washing the cells and finally treating the cells with Alamar Blue. After 12–24 h, the fluorescence of the reduced dye was measured. Fluorescence intensity as a function of test compound concentration was fit to the Fermi equation, using non-linear least squares regression analysis, to estimate IC50 values.

HA-MRSA = assay: MIC against clinical isolates of MRSA; type: cell-based; conditions: Staphylococcus aureus, read-out: MIC HA-MRSA
USA300 CA-MRSA = assay: MIC against clinical isolates of MRSA; type: cell-based, Staphylococcus aureus; conditions: for MIC: Staphylococcus aureus, read-out: MIC USA300 CA-MRSA
S. pyogenes DHFR = S. pyogenes DHFR (Streptococcus pyogenes, UniProt Q9A091); assay: biochemical; type: biochemical; conditions: IC50 (human)/IC50 (pathogen)
Experimental: (§1) S. aureus DHFR was cloned, expressed and purified as previously described. Briefly, the DHFR gene was inserted into vector pET41 with a His8 tag for purification. The protein was expressed in E. coli BL21 (DE3) cells. […] The protein was concentrated to ∼5 mg/mL. S. pyogenes DHFR was cloned using PCR from genomic DNA and inserted in vector pET-41.
(§2) Enzyme inhibition assays were performed by monitoring the rate of NADPH oxidation by the DHFR enzyme at an absorbance of 340 nm over five minutes. Assays were performed in the presence of saturating concentrations of NADPH (100 µM) and initiated with dihydrofolate (1 mM). All assays were completed at 25°C in a buffer containing 20 mM TES pH 7.0, 50 mM KCl, 10 mM 2-mercaptoethanol, 0.5 mM EDTA and 1 mg/mL BSA. Inhibition was measured at least three times with inhibitor concentrations near the IC50 value and the average IC50 value is reported with a standard deviation.

S. aureus DHFR = molecular target: T1, S. aureus DHFR (Staphylococcus aureus, UniProt P0A017); assay: biochemical; type: biochemical; conditions: for Selectivity (h/Sa): IC50 (human)/IC50 (pathogen)
T1 construct: the DHFR gene was inserted into vector pET41 with a His8 tag for purification; His8; made in house; host or cells: E. coli BL21 (DE3)
Experimental: as §1, §2

hVISA Mu3 = assay: MIC against clinical isolates of MRSA; type: cell-based; conditions: Staphylococcus aureus, read-out: MIC hVISA Mu3
Human DHFR = molecular target: T2, Human DHFR (Homo sapiens, UniProt P00374); assay: DHFR enzyme inhibition assay (NADPH oxidation, 340 nm); type: biochemical; conditions: human DHFR; average of at least three measurements; read-out: IC50 (nM) Human
T2 sequence (P00374 1-187): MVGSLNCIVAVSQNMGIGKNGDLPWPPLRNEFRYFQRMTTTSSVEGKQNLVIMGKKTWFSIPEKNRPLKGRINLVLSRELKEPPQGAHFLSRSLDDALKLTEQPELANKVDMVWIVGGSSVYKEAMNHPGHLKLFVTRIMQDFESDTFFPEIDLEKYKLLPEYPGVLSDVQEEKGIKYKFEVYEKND
Experimental: as §2

MRSA (S.aureus 13709) = assay: MIC, broth microdilution with Alamar Blue; type: cell-based, Staphylococcus aureus; conditions: for Selectivity MRSA: IC50 (MCF10)/MIC (pathogen), both values in µM; for MIC: Staphylococcus aureus, MRSA
Experimental: (§3) Stock solutions of standard antibiotics and test compounds were made at 50 mM in DMSO. […] For susceptibility testing, 10 µL of glycerol stock was suspended in a 10 mL shake flask culture of chemically defined Isosensitest broth (Oxoid) supplemented with 2% w/v glucose. A sample of the shake flask culture was diluted to 1×10^6 cells/mL in media and added to 96-well test plates (100 µL per well) containing test compounds dispensed in DMSO (2 µL) using serial two-fold dilutions. After an incubation period (30°C) determined from the strain specific doubling time, a 0.03% w/v aqueous solution of resazurin (10 µL) was added and the plates were allowed to incubate; each well was then scored for dye reduction.

[1] = system: TMP-SMZ-resistant MRSA strain; assay: MIC against clinical isolates of MRSA; type: cell-based; conditions: Staphylococcus aureus
Streptococcus pyogenes = assay: MIC, broth microdilution with Alamar Blue; type: cell-based; conditions: for Selectivity S. pyogenes: IC50 (MCF10)/MIC (pathogen), both values in µM; for MIC: Streptococcus pyogenes
Experimental: as §3

[2] = clinical isolate, USA100, read-out: MIC USA100 HA-MRSA
[3] = clinical isolate, first USA100 column, read-out: MIC USA100 HA-MRSA
[4] = clinical isolate, third USA100 column, read-out: MIC USA100 HA-MRSA
[5] = S. aureus DHFR, average of at least three measurements, read-out: IC50 (nM) Sa
[6] = heteroresistant vancomycin intermediate S. aureus
[7] = 10% fetal calf serum, read-out: MIC MRSA +FCS
[8] = 10% fetal calf serum, value in parentheses, read-out: MIC MRSA +FCS
[9] = value in parentheses, read-out: MIC MRSA
[10] = clinical isolate, Table 4, read-out: MIC TMP-SMZ^R
[11] = 10% FCS, read-out: MIC S. pyogenes +FCS
[12] = 10% FCS, value in parentheses, read-out: MIC S. pyogenes +FCS
[13] = value in parentheses, read-out: MIC S. pyogenes

Sequence of S. pyogenes DHFR (Q9A091 entry or part of it): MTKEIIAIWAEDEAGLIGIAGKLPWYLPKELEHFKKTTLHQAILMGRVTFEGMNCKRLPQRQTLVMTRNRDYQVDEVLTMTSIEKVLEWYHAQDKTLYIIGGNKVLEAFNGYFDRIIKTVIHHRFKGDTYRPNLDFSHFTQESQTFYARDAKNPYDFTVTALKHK
T1 sequence (P0A017 whole entry): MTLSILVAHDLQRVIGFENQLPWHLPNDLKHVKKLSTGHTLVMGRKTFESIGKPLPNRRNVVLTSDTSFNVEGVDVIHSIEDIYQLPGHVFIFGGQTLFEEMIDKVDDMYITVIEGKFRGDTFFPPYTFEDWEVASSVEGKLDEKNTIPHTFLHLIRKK

SMILES	MIC (USA100 HA-MRSA; [2]) [µg/mL]	MIC (USA100 HA-MRSA; [3]) [µg/mL]	MIC (USA100 HA-MRSA; [4]) [µg/mL]	MIC (VISA Mu50) [µg/mL]	IC50 (MCF-10 cells) [nM]	IC50 (HepG2 cells) [nM]	MIC (HA-MRSA; clinical isolate) [µg/mL]	MIC (USA300 CA-MRSA; clinical isolate, USA300) [µg/mL]	MIC (USA300 CA-MRSA; clinical isolate) [µg/mL]	Selectivity (h/Sp) (S. pyogenes DHFR)	Selectivity (h/Sa) (S. aureus DHFR)	MIC (hVISA Mu3; [6]) [µg/mL]	IC50 (Human DHFR) [nM]	Selectivity MRSA (MRSA (S.aureus 13709))	MIC (MRSA (S.aureus 13709); [9]) [µM]	MIC (MRSA (S.aureus 13709); read-out: MIC MRSA) [µg/mL]	MIC [1, 10] [µg/mL]	Selectivity S. pyogenes (Streptococcus pyogenes)	MIC (Streptococcus pyogenes; [13]) [µM]	MIC (Streptococcus pyogenes; read-out: MIC S. pyogenes) [µg/mL]	other results
CCc1nc(N)nc(N)c1C#CCc1cc(-c2ccncc2)ccc1OC [Compound 26]	0.08 (≈ 0.223 µM)	5.3 (≈ 14.7 µM)	0.04 (≈ 0.111 µM)	0.04 (≈ 0.111 µM)	217000	199000	0.08 (≈ 0.223 µM)	0.08 (≈ 0.223 µM)	0.08 (≈ 0.223 µM)	17	16	0.04 (≈ 0.111 µM)	330 ± 12	3,391	0.064	0.02	0.04 (≈ 0.111 µM)	1,736	0.125	0.04	IC50 (S. aureus DHFR; [5]): 21 ± 1 nM; MIC (MRSA (S.aureus 13709); [7]): 0.09 µg/mL; MIC (MRSA (S.aureus 13709); [8]): 0.25 µM; MIC (Streptococcus pyogenes; [11]): 0.09 µg/mL; MIC (Streptococcus pyogenes; [12]): 0.25 µM
CCc1nc(N)nc(N)c1C#CCc1cc(OC)cc(-c2ccncc2)c1 [Compound 27]	0.045 (≈ 0.125 µM)	2.9 (≈ 8.07 µM)	0.045 (≈ 0.125 µM)	0.18 (≈ 0.501 µM)	409000	465000	0.045 (≈ 0.125 µM)	0.045 (≈ 0.125 µM)	0.045 (≈ 0.125 µM)	2	5	0.045 (≈ 0.125 µM)	61 ± 5.7	3,272	0.125	0.04	0.045 (≈ 0.125 µM)	3,272	0.125	0.04	IC50 (S. aureus DHFR): 12 ± 2.4 nM; MIC (MRSA (S.aureus 13709); [7]): 0.09 µg/mL; MIC (MRSA (S.aureus 13709); [8]): 0.25 µM; MIC (Streptococcus pyogenes; [11]): 0.09 µg/mL; MIC (Streptococcus pyogenes; [12]): 0.25 µM
CCc1nc(N)nc(N)c1C#CCc1cccc(-c2ccncc2)c1 [Compound 28]	0.045 (≈ 0.137 µM)	2.9 (≈ 8.8 µM)	0.045 (≈ 0.137 µM)	0.09 (≈ 0.273 µM)	475000	> 500000	0.045 (≈ 0.137 µM)	0.045 (≈ 0.137 µM)	0.045 (≈ 0.137 µM)	17	26	0.045 (≈ 0.137 µM)	520 ± 23	1,900	0.25	0.08	0.045 (≈ 0.137 µM)	3,800	0.125	0.04	IC50 (S. aureus DHFR; [5]): 20 ± 0.5 nM; MIC (MRSA (S.aureus 13709); [7]): 0.16 µg/mL; MIC (MRSA (S.aureus 13709); [8]): 0.5 µM; MIC (Streptococcus pyogenes; [11]): 0.09 µg/mL; MIC (Streptococcus pyogenes; [12]): 0.25 µM
CCc1nc(N)nc(N)c1C#CCc1cccc(-c2cccnc2)c1 [Compound 36]	0.36 (≈ 1.09 µM)	5.76 (≈ 17.5 µM)	0.09 (≈ 0.273 µM)	0.72 (≈ 2.19 µM)	> 500000	> 500000	0.36 (≈ 1.09 µM)	0.36 (≈ 1.09 µM)	0.02 (≈ 0.0607 µM)	6	9	0.36 (≈ 1.09 µM)	290 ± 15	>4,000	0.125	0.041	0.045 (≈ 0.137 µM)	>2,000	0.25	0.08	IC50 (S. aureus DHFR; [5]): 33 ± 0.5 nM
CN[C@H](CC(C)C)C(=O)N[C@H]1C(=O)N[C@@H](CC(N)=O)C(=O)N[C@H]2C(=O)N[C@H]3C(=O)N[C@H](C(=O)N[C@H](C(=O)O)c4cc(O)cc(O)c4-c4cc3ccc4O)[C@H](O)c3ccc(c(Cl)c3)Oc3cc2cc(c3O[C@@H]2O[C@H](CO)[C@@H](O)[C@H](O)[C@H]2O[C@H]2C[C@](C)(N)[C@H](O)[C@H](C)O2)Oc2ccc(cc2Cl)[C@H]1O [Vancomycin, reference compound]				8 (≈ 5.52 µM)																	MIC (USA100 HA-MRSA; read-out: MIC USA100 HA-MRSA, clinical isolate, USA100): 1 µg/mL (≈ 0.69 µM); MIC (USA100 HA-MRSA; read-out: MIC USA100 HA-MRSA, clinical isolate, first USA100 column): 0.5 µg/mL (≈ 0.345 µM); MIC (USA100 HA-MRSA; read-out: MIC USA100 HA-MRSA, clinical isolate, third USA100 column): 1 µg/mL (≈ 0.69 µM); MIC (HA-MRSA): 1 µg/mL (≈ 0.69 µM); MIC (USA300 CA-MRSA): 1 µg/mL (≈ 0.69 µM); MIC USA300 CA-MRSA (USA300 CA-MRSA; clinical isolate, USA300): 1 µg/mL (≈ 0.69 µM); MIC (hVISA Mu3): 3 µg/mL (≈ 2.07 µM); MIC ([1]; read-out: MIC TMP-SMZ^R): 2 µg/mL (≈ 1.38 µM)

From PMC3274548, “Toward New Therapeutics for Skin and Soft Tissue Infections: Propargyl-Linked Antifolates Are Potent Inhibitors of MRSA and Streptococcus pyogenes” (PLoS ONE, 2012)
